Reference: patent US8952024B2, “Herbicidal pyrimidone derivatives” (E I du Pont de Nemours and Company, priority 2009, dated 2015)

Assays:
Assay in all cases: Test D pre-/postemergence plant response
Assay type in all cases: in vivo
[1] = test system: green foxtail (Setaria viridis)
Summary of the method: (§1)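 Both preemergence and postemergence treatments were made at the same time, with the compound in a non-phytotoxic, surfactant-containing solvent mixture. Plants grew in a greenhouse for 14–21 days before visual evaluation, scored from 0 (no effect) to 100 (complete control).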

[2] = test system: sowthistle (common sowthistle, Sonchus oleraceous); conditions: Postemergence
Summary of the method: as §1

[3] = test system: bluegrass (annual bluegrass, Poa annua)
Summary of the method: as §1

[4] = test system: quackgrass (Elytrigia repens)
Summary of the method: as §1

[5] = test system: itchgrass (Rottboellia cochinchinensis)
Summary of the method: as §1

[6] = test system: groundsel (common groundsel, Senecio vulgaris); conditions: Postemergence
Summary of the method: as §1

[7] = test system: signalgrass (broadleaf signalgrass, Brachiaria platyphylla)
Summary of the method: as §1

[8] = test system: dayflower (Virginia (VA) dayflower, Commelina virginica)
Summary of the method: as §1

[9] = test system: morningglory (pitted morningglory, Ipomoea lacunosa)
Summary of the method: as §1

[10] = test system: black mustard (Brassica nigra)
Summary of the method: as §1

[11] = test system: large crabgrass (Digitaria sanguinalis)
Summary of the method: as §1

[12] = test system: goosegrass (Eleusine indica)
Summary of the method: as §1

[13] = test system: sandbur (southern sandbur, Cenchrus echinatus)
Summary of the method: as §1

[14] = test system: Surinam grass (Brachiaria decumbens)
Summary of the method: as §1

[15] = test system: mallow (common mallow, Malva sylvestris)
Summary of the method: as §1

[16] = test system: bermudagrass (Cynodon dactylon)
Summary of the method: as §1

[17] = test system: field bindweed (Convolvulus arvensis)
Summary of the method: as §1

[18] = test system: nutsedge (purple nutsedge, Cyperus rotundus)
Summary of the method: as §1

[19] = Postemergence, 31 g ai/ha, scale 0 to 100
[20] = Postemergence, 62 g ai/ha, scale 0 to 100 (0 no effect, 100 complete control)
[21] = Postemergence, 125 g ai/ha, scale 0 to 100 (0 no effect, 100 complete control)
[22] = Postemergence, 250 g ai/ha, scale 0 to 100 (0 no effect, 100 complete control)
[23] = Preemergence, 62 g ai/ha, scale 0 to 100
[24] = Preemergence, 125 g ai/ha, scale 0 to 100
[25] = Preemergence, 250 g ai/ha, scale 0 to 100
[26] = 62 g ai/ha, scale 0 to 100 (0 no effect, 100 complete control)
[27] = 125 g ai/ha, scale 0 to 100 (0 no effect, 100 complete control)
[28] = 250 g ai/ha, scale 0 to 100 (0 no effect, 100 complete control)

Compound: COCCn1c(-c2cc(F)cc(F)c2)ncc(C(=O)C2=C(O)C3CCC(C3)C2=O)c1=O (stereo not shown) [Compound 243, 2-(3,5-difluorophenyl)-5-[(2-hydroxy-4-oxobicyclo[3.2.1]oct-2-en-3-yl)carbonyl]-3-(2-methoxyethyl)-4(3H)-pyrimidinone]
- Plant response rating, Foxtail, Green [1, 19]: 80
- Plant response rating, Foxtail, Green [1, 20]: 85
- Plant response rating, Foxtail, Green [1, 21]: 90
- Plant response rating, Foxtail, Green [1, 22]: 98
- Plant response rating, Foxtail, Green [1, 23]: 35
- Plant response rating, Foxtail, Green [1, 24]: 100
- Plant response rating, Foxtail, Green [1, 25]: 100
- Plant response rating, Sowthistle ([2]; 31 g ai/ha, scale 0 to 100): 90
- Plant response rating, Sowthistle [2, 26]: 90
- Plant response rating, Sowthistle [2, 27]: 95
- Plant response rating, Sowthistle [2, 28]: 98
- Plant response rating, Bluegrass [3, 19]: 5
- Plant response rating, Bluegrass [3, 20]: 5
- Plant response rating, Bluegrass [3, 21]: 35
- Plant response rating, Bluegrass [3, 22]: 35
- Plant response rating, Bluegrass [3, 23]: 40
- Plant response rating, Bluegrass [3, 24]: 95
- Plant response rating, Bluegrass [3, 25]: 100
- Plant response rating, Quackgrass [4, 19]: 35
- Plant response rating, Quackgrass [4, 20]: 40
- Plant response rating, Quackgrass [4, 21]: 70
- Plant response rating, Quackgrass [4, 22]: 75
- Plant response rating, Quackgrass [4, 24]: 85
- Plant response rating, Quackgrass [4, 25]: 98
- Plant response rating, Itchgrass [5, 19]: 75
- Plant response rating, Itchgrass [5, 20]: 75
- Plant response rating, Itchgrass [5, 21]: 75
- Plant response rating, Itchgrass [5, 22]: 85
- Plant response rating, Itchgrass [5, 23]: 25
- Plant response rating, Itchgrass [5, 24]: 50
- Plant response rating, Itchgrass [5, 25]: 100
- Plant response rating, Groundsel ([6]; 31 g ai/ha, scale 0 to 100): 98
- Plant response rating, Groundsel [6, 26]: 100
- Plant response rating, Groundsel [6, 27]: 100
- Plant response rating, Groundsel [6, 28]: 100
- Plant response rating, Signalgrass [7, 19]: 50
- Plant response rating, Signalgrass [7, 20]: 75
- Plant response rating, Signalgrass [7, 21]: 75
- Plant response rating, Signalgrass [7, 22]: 95
- Plant response rating, Signalgrass [7, 24]: 95
- Plant response rating, Signalgrass [7, 25]: 100
- Plant response rating, Dayflower, VA [8, 19]: 35
- Plant response rating, Dayflower, VA [8, 20]: 65
- Plant response rating, Dayflower, VA [8, 21]: 70
- Plant response rating, Dayflower, VA [8, 22]: 75
- Plant response rating, Dayflower, VA [8, 23]: 100
- Plant response rating, Dayflower, VA [8, 24]: 100
- Plant response rating, Dayflower, VA [8, 25]: 100
- Plant response rating, Morningglory [9, 19]: 75
- Plant response rating, Morningglory [9, 20]: 85
- Plant response rating, Morningglory [9, 21]: 85
- Plant response rating, Morningglory [9, 22]: 85
- Plant response rating, Morningglory [9, 24]: 98
- Plant response rating, Morningglory [9, 25]: 100
- Plant response rating, Black Mustard [10, 19]: 50
- Plant response rating, Black Mustard [10, 20]: 75
- Plant response rating, Black Mustard [10, 21]: 98
- Plant response rating, Black Mustard [10, 22]: 98
- Plant response rating, Black Mustard [10, 23]: 100
- Plant response rating, Black Mustard [10, 24]: 100
- Plant response rating, Black Mustard [10, 25]: 100
- Plant response rating, Crabgrass, Large [11, 19]: 75
- Plant response rating, Crabgrass, Large [11, 20]: 80
- Plant response rating, Crabgrass, Large [11, 21]: 85
- Plant response rating, Crabgrass, Large [11, 22]: 85
- Plant response rating, Crabgrass, Large [11, 23]: 100
- Plant response rating, Crabgrass, Large [11, 24]: 100
- Plant response rating, Crabgrass, Large [11, 25]: 100
- Plant response rating, Goosegrass [12, 19]: 65
- Plant response rating, Goosegrass [12, 20]: 70
- Plant response rating, Goosegrass [12, 21]: 70
- Plant response rating, Goosegrass [12, 22]: 75
- Plant response rating, Goosegrass [12, 23]: 100
- Plant response rating, Goosegrass [12, 24]: 100
- Plant response rating, Goosegrass [12, 25]: 100
- Plant response rating, Sandbur [13, 19]: 75
- Plant response rating, Sandbur [13, 20]: 75
- Plant response rating, Sandbur [13, 21]: 75
- Plant response rating, Sandbur [13, 22]: 80
- Plant response rating, Sandbur [13, 24]: 100
- Plant response rating, Sandbur [13, 25]: 100
- Plant response rating, Surinam Grass [14, 19]: 75
- Plant response rating, Surinam Grass [14, 20]: 75
- Plant response rating, Surinam Grass [14, 21]: 75
- Plant response rating, Surinam Grass [14, 22]: 85
- Plant response rating, Surinam Grass [14, 24]: 100
- Plant response rating, Surinam Grass [14, 25]: 100
- Plant response rating, Mallow [15, 19]: 50
- Plant response rating, Mallow [15, 20]: 60
- Plant response rating, Mallow [15, 21]: 70
- Plant response rating, Mallow [15, 22]: 70
- Plant response rating, Mallow [15, 23]: 50
- Plant response rating, Mallow [15, 24]: 80
- Plant response rating, Mallow [15, 25]: 98
- Plant response rating, Bermudagrass [16, 19]: 75
- Plant response rating, Bermudagrass [16, 20]: 85
- Plant response rating, Bermudagrass [16, 21]: 95
- Plant response rating, Bermudagrass [16, 22]: 95
- Plant response rating, Bermudagrass [16, 23]: 100
- Plant response rating, Bermudagrass [16, 24]: 100
- Plant response rating, Bermudagrass [16, 25]: 100
- Plant response rating, Field Bindweed [17, 19]: 65
- Plant response rating, Field Bindweed [17, 20]: 70
- Plant response rating, Field Bindweed [17, 21]: 70
- Plant response rating, Field Bindweed [17, 22]: 70
- Plant response rating, Field Bindweed [17, 23]: 100
- Plant response rating, Field Bindweed [17, 24]: 100
- Plant response rating, Field Bindweed [17, 25]: 100
- Plant response rating, Nutsedge, Purple [18, 19]: 20
- Plant response rating, Nutsedge, Purple [18, 20]: 25
- Plant response rating, Nutsedge, Purple [18, 21]: 25
- Plant response rating, Nutsedge, Purple [18, 22]: 50
- Plant response rating, Nutsedge, Purple [18, 23]: 20
- Plant response rating, Nutsedge, Purple [18, 24]: 100
- Plant response rating, Nutsedge, Purple [18, 25]: 100
